In PubChem BioAssay AID270 (DTP/NCI, 2004):
Several values for one entry are separate records, joined by “and”; a condition that tells them apart may be missing. Equal entries are not always repeated. Results filed as inconclusive are left out.

Test system: BDF1 mice, s.c. Lewis lung carcinoma, T/C %
Test: NCI In Vivo Anticancer Drug Screen. Data for tumor model Lewis Lung Carcinoma (subcutaneous) in B6D2F1 (BDF1) mice
Procedure, shortened: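 First, mice carry a transplantable tumor. Next, groups receive either compound or vehicle. Finally, survival or tumor dimensions in the dosed animals are divided by the corresponding control figure.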

[1] = endpoint: mean tumor weight, dose: 50.0 mg/kg/injection, schedule: Q01DX011 (ip), vehicle: saline, higher = larger tumour
[2] = endpoint: mean tumor weight, dose: 100.0 mg/kg/injection, schedule: Q01DX011 (ip), vehicle: saline, higher = larger tumour
[3] = endpoint: median survival time, dose: 12.5 mg/kg/injection, schedule: Q01DX009 (ip), vehicle: saline, higher = longer survival

`COc1cc2c(cc1OC)-c1ccc3cc4c(cc3c1N(C)C2)OCO4` was tested, and the T/C (endpoint: median survival time, dose: 5.0 mg/kg/injection, schedule: Q01DX009 (ip), vehicle: water, higher = longer survival) was 89 % of control, the T/C (endpoint: median survival time, dose: 20.0 mg/kg/injection, schedule: Q01DX009 (ip), vehicle: water, higher = longer survival) was 105 % of control and the T/C (endpoint: median survival time, dose: 40.0 mg/kg/injection, schedule: Q01DX009 (ip), vehicle: water, higher = longer survival) was 89 % of control. The T/C (endpoint: median survival time, dose: 80.0 mg/kg/injection, schedule: Q01DX009 (ip), vehicle: water, higher = longer survival) was 98 % of control.
With `CN1CCCC1` the T/C (endpoint: mean tumor weight, dose: 44.0 mg/kg/injection, schedule: Q01DX011 (ip), vehicle: carboxymethylcellulose (CMC), higher = larger tumour) was 52 % of control, the T/C (endpoint: mean tumor weight, dose: 66.0 mg/kg/injection, schedule: Q01DX011 (ip), vehicle: carboxymethylcellulose (CMC), higher = larger tumour) was 58 % of control and the T/C (endpoint: mean tumor weight, dose: 100.0 mg/kg/injection, schedule: Q01DX011 (ip), vehicle: carboxymethylcellulose (CMC), higher = larger tumour) was 69 % of control. The T/C (endpoint: mean tumor weight, dose: 150.0 mg/kg/injection, schedule: Q01DX011 (ip), vehicle: carboxymethylcellulose (CMC), higher = larger tumour) was 109 % of control.
For `CC(C)(C)C1CCC(NC(=O)N(CCCl)N=O)CC1` (stereo not given), the T/C (endpoint: median survival time, dose: 140.0 mg/kg/injection, schedule: Q01DX001 (ip), vehicle: gum acacia, higher = longer survival) was 118 % of control and the T/C (endpoint: median survival time, dose: 315.0 mg/kg/injection, schedule: Q01DX001 (ip), vehicle: gum acacia, higher = longer survival) was 121 % of control.
In the case of `Nc1nc2nc[nH]c2c(=O)[nH]1`, the T/C (endpoint: mean tumor weight, dose: 6.25 mg/kg/injection, schedule: Q01DX010 (ip), vehicle: saline, higher = larger tumour) is reported as 73 % of control, the T/C (endpoint: mean tumor weight, dose: 12.5 mg/kg/injection, schedule: Q01DX010 (ip), vehicle: saline, higher = larger tumour) is reported as 71 % of control and the T/C (endpoint: mean tumor weight, dose: 25.0 mg/kg/injection, schedule: Q01DX010 (ip), vehicle: saline, higher = larger tumour) is reported as 96 % of control. For the same molecule, the T/C (endpoint: mean tumor weight, dose: 50.0 mg/kg/injection, schedule: Q01DX010 (ip), vehicle: saline, higher = larger tumour) was 71 % of control, the T/C [1] was 82 % of control and the T/C [2] was 80 % of control.
With `O=C(O)C(=O)c1ccc(-c2ccccc2)cc1` the T/C (endpoint: mean tumor weight, dose: 35.0 mg/kg/injection, schedule: Q01DX011 (ip), vehicle: methylcellulose (MC), higher = larger tumour) was 82 % of control, the T/C (endpoint: mean tumor weight, dose: 50.0 mg/kg/injection, schedule: Q01DX011 (ip), vehicle: methylcellulose (MC), higher = larger tumour) was 68 % of control and the T/C (endpoint: mean tumor weight, dose: 75.0 mg/kg/injection, schedule: Q01DX011 (ip), vehicle: methylcellulose (MC), higher = larger tumour) was 52 % of control. The T/C (endpoint: mean tumor weight, dose: 110.0 mg/kg/injection, schedule: Q01DX011 (ip), vehicle: methylcellulose (MC), higher = larger tumour) was 52 % of control.
For `C=COCC(C)C` (tested in a mixture with another compound), the T/C (endpoint: median survival time, dose: 1.25 mg/kg/injection, schedule: Q01DX009 (ip), vehicle: other, higher = longer survival) was 101 % of control, the T/C (endpoint: median survival time, dose: 2.5 mg/kg/injection, schedule: Q01DX009 (ip), vehicle: other, higher = longer survival) was 110 % of control and the T/C (endpoint: median survival time, dose: 5.0 mg/kg/injection, schedule: Q01DX009 (ip), vehicle: other, higher = longer survival) was 107 % of control.
For `CO[C@H]1/C=C/O[C@@]2(C)Oc3c(C)c(O)c4c(O)c(c(/C=N/N5C(C)CN(Cc6ccccc6)CC5C)c(O)c4c3C2=O)NC(=O)/C(C)=C\C=C\[C@H](C)[C@H](O)[C@@H](C)[C@@H](O)[C@@H](C)[C@H](OC(C)=O)[C@@H]1C` (stereo not given in full), the T/C (endpoint: mean tumor weight, dose: 50.0 mg/kg/injection, schedule: Q01DX009 (ip), vehicle: saline with Tween-80, higher = larger tumour) was 112 % of control, the T/C (endpoint: mean tumor weight, dose: 100.0 mg/kg/injection, schedule: Q01DX009 (ip), vehicle: saline with Tween-80, higher = larger tumour) was 93 % of control and the T/C (endpoint: mean tumor weight, dose: 200.0 mg/kg/injection, schedule: Q01DX009 (ip), vehicle: saline with Tween-80, higher = larger tumour) was 65 % of control. The T/C (endpoint: mean tumor weight, dose: 400.0 mg/kg/injection, schedule: Q01DX009 (ip), vehicle: saline with Tween-80, higher = larger tumour) was 47 % of control, the T/C (endpoint: median survival time, dose: 1.6 mg/kg/injection, schedule: Q02DX Z (oral), vehicle: Klucel (hydroxypropylcellulose) (HPC), higher = longer survival) was 95 % of control and the T/C (endpoint: median survival time, dose: 3.12 mg/kg/injection, schedule: Q02DX Z (oral), vehicle: Klucel (hydroxypropylcellulose) (HPC), higher = longer survival) was 91 % of control. The T/C (endpoint: median survival time, dose: 12.5 mg/kg/injection, schedule: Q02DX Z (oral), vehicle: Klucel (hydroxypropylcellulose) (HPC), higher = longer survival) was 87 % of control, the T/C (endpoint: median survival time, dose: 25.0 mg/kg/injection, schedule: Q02DX Z (oral), vehicle: Klucel (hydroxypropylcellulose) (HPC), higher = longer survival) was 91 % of control and the T/C (endpoint: median survival time, dose: 50.0 mg/kg/injection, schedule: Q02DX Z (oral), vehicle: Klucel (hydroxypropylcellulose) (HPC), higher = longer survival) was 95 % of control. The T/C (endpoint: median survival time, dose: 100.0 mg/kg/injection, schedule: Q01DX009 (ip), vehicle: saline with Tween-80, higher = longer survival) was 112 % of control, the T/C (endpoint: median survival time, dose: 100.0 mg/kg/injection, schedule: Q02DX Z (oral), vehicle: Klucel (hydroxypropylcellulose) (HPC), higher = longer survival) was 94 % of control and the T/C (endpoint: median survival time, dose: 200.0 mg/kg/injection, schedule: Q01DX009 (ip), vehicle: saline with Tween-80, higher = longer survival) was 100 % of control. For the same molecule, the T/C (endpoint: median survival time, dose: 200.0 mg/kg/injection, schedule: Q02DX Z (oral), vehicle: Klucel (hydroxypropylcellulose) (HPC), higher = longer survival) was 102 % of control.
In the case of `CC(C)NC(=O)c1ccc(N/N=[N+](/C)[O-])cc1`, the T/C (endpoint: median survival time, dose: 6.25 mg/kg/injection, schedule: Q01DX005 (ip), vehicle: saline with Tween-80, higher = longer survival) is reported as 105 % of control, the T/C (endpoint: median survival time, dose: 12.5 mg/kg/injection, schedule: Q01DX005 (ip), vehicle: saline with Tween-80, higher = longer survival) is reported as 102 % of control and the T/C (endpoint: median survival time, dose: 25.0 mg/kg/injection, schedule: Q01DX005 (ip), vehicle: saline with Tween-80, higher = longer survival) is reported as 106 % of control. The T/C (endpoint: median survival time, dose: 50.0 mg/kg/injection, schedule: Q01DX005 (ip), vehicle: saline with Tween-80, higher = longer survival) was 90 % of control and 103 % of control, the T/C (endpoint: median survival time, dose: 100.0 mg/kg/injection, schedule: Q01DX005 (ip), vehicle: saline with Tween-80, higher = longer survival) was 111 % of control and 112 % of control and the T/C (endpoint: median survival time, dose: 200.0 mg/kg/injection, schedule: Q01DX005 (ip), vehicle: saline with Tween-80, higher = longer survival) was 110 % of control.
`CCCCCOC(CN)C(Cl)(Cl)Cl` (stereo not given) was tested, and the T/C [3] was 100 % of control, the T/C (endpoint: median survival time, dose: 25.0 mg/kg/injection, schedule: Q01DX009 (ip), vehicle: saline, higher = longer survival) was 92 % of control and the T/C (endpoint: median survival time, dose: 100.0 mg/kg/injection, schedule: Q01DX009 (ip), vehicle: saline, higher = longer survival) was 95 % of control.
`CC(=O)CC(C)=O.CC(=O)CC(C)=O.CC(=O)CC(C)=O.[V]` was tested, and the T/C (endpoint: median survival time, dose: 3.12 mg/kg/injection, schedule: Q01DX009 (ip), vehicle: saline, higher = longer survival) was 109 % of control, the T/C (endpoint: median survival time, dose: 6.25 mg/kg/injection, schedule: Q01DX009 (ip), vehicle: saline, higher = longer survival) was 109 % of control and the T/C [3] was 94 % of control.
In the case of `COc1ccc2c(=O)cc(-c3ccccc3)n(C)c2c1`, the T/C [1] is reported as 109 % of control, the T/C [2] is reported as 83 % of control and the T/C (endpoint: mean tumor weight, dose: 200.0 mg/kg/injection, schedule: Q01DX011 (ip), vehicle: saline, higher = larger tumour) is reported as 79 % of control.
`COC(=O)[C@@H]1[C@@H](O)[C@H](OC(=O)c2cc(OC)c(OC)c(OC)c2)C[C@@H]2CN3CCc4c([nH]c5ccccc45)[C@H]3C[C@@H]21` was tested, and the T/C (endpoint: median survival time, dose: 1.25 mg/kg/injection, schedule: Q01DX009 (ip), vehicle: Klucel (hydroxypropylcellulose) (HPC), higher = longer survival) was 108 % of control, the T/C (endpoint: median survival time, dose: 2.5 mg/kg/injection, schedule: Q01DX009 (ip), vehicle: Klucel (hydroxypropylcellulose) (HPC), higher = longer survival) was 122 % of control and the T/C (endpoint: median survival time, dose: 5.0 mg/kg/injection, schedule: Q01DX009 (ip), vehicle: Klucel (hydroxypropylcellulose) (HPC), higher = longer survival) was 88 % of control.
For `C=C1C(=O)OC2CC(C)C3(O)CCC(C)(CC(OC(=O)C(C)C)C12)O3` (stereo not given), the T/C (endpoint: median survival time, dose: 50.0 mg/kg/injection, schedule: Q01DX009 (ip), vehicle: Klucel (hydroxypropylcellulose) (HPC), higher = longer survival) was 92 % of control and the T/C (endpoint: median survival time, dose: 100.0 mg/kg/injection, schedule: Q01DX009 (ip), vehicle: Klucel (hydroxypropylcellulose) (HPC), higher = longer survival) was 106 % of control.
With `CCN(CC)CCCC(C)Nc1c2ccc(Cl)cc2nc2ccc(OC)cc12` (stereo not given) the T/C (endpoint: median survival time, dose: 8.0 mg/kg/injection, schedule: Q01DX009 (ip), vehicle: saline, higher = longer survival) was 103 % of control, the T/C (endpoint: median survival time, dose: 8.0 mg/kg/injection, schedule: Q01DX009 (ip), vehicle: suspension in saline, higher = longer survival) was 95 % of control and the T/C (endpoint: median survival time, dose: 16.0 mg/kg/injection, schedule: Q01DX009 (ip), vehicle: saline, higher = longer survival) was 101 % of control. The T/C (endpoint: median survival time, dose: 16.0 mg/kg/injection, schedule: Q01DX009 (ip), vehicle: suspension in saline, higher = longer survival) was 113 % of control, the T/C (endpoint: median survival time, dose: 32.0 mg/kg/injection, schedule: Q01DX009 (ip), vehicle: saline with Tween-80, higher = longer survival) was 163 % of control and the T/C (endpoint: median survival time, dose: 32.0 mg/kg/injection, schedule: Q01DX009 (ip), vehicle: suspension in saline, higher = longer survival) was 104 % of control. For the same molecule, the T/C (endpoint: median survival time, dose: 64.0 mg/kg/injection, schedule: Q01DX009 (ip), vehicle: saline with Tween-80, higher = longer survival) was 112 % of control, the T/C (endpoint: median survival time, dose: 64.0 mg/kg/injection, schedule: Q01DX009 (ip), vehicle: saline, higher = longer survival) was 101 % of control and the T/C (endpoint: median survival time, dose: 64.0 mg/kg/injection, schedule: Q01DX009 (ip), vehicle: suspension in saline, higher = longer survival) was 105 % of control.
